Source: patent publication US10081665B2, “Peptides and combination of peptides for use in immunotherapy against various tumors” (immatics biotechnologies GmbH, priority 2015, dated 2018)

Assays:
[1] = test system: advanced non-resectable HCC; settings: advanced non-resectable HCC patients (Chapiro et al., 2014; Llovet et al., 2008); cited from earlier work
HLA-A*02:01 = HLA-A*02:01 (Homo sapiens, UniProt P04439, D140Y/D185E/D98H/E176V/E277Q/G131W/G231S/I119V/I121R/I166T/I218V/L300P/L318F/N151K/N90K/P208A/P217A/Q86G/Q94H/R138H/R169H/T345S); experiment: MHC binding assay (UV-ligand exchange, beta2m ELISA); settings: binding to HLA-A*02:01, β2m ELISA
Method in brief: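 Peptide-MHC complexes made by UV-ligand exchange of a UV-cleavable peptide for test peptide; exchange yield measured by β2m ELISA on streptavidin-coated plates with samples diluted 100-fold, HRP anti-β2m and TMB read at 450 nm. Refolded HLA-A*02:01/MLA-001 monomers (15-500 ng/ml) served as standards.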

CD8+ T cells = experiment: In vitro immunogenicity: T-cell priming with aAPCs loaded with peptide/MHC complexes and anti-CD28, pMHC multimer readout; type: cell-based, human; settings: in vitro immunogenicity, HLA-A*02 restricted peptides; percentage of positive wells and donors (among evaluable)
From the text: In order to obtain information regarding the immunogenicity of the TUMAPs of the present invention, the inventors performed investigations using an in vitro T-cell priming assay based on repeated stimulations of CD8+ T cells with artificial antigen presenting cells (aAPCs) loaded with peptide/MHC complexes and anti-CD28 antibody.
In order to perform in vitro stimulations by artificial antigen presenting cells loaded with peptide-MHC complex (pMHC) and anti-CD28 antibody, the inventors first isolated CD8+ T cells from fresh HLA-A*02 leukapheresis products via positive selection using CD8 microbeads (Miltenyi Biotec, Bergisch-Gladbach, Germany) of healthy donors obtained from the University clinics Mannheim, Germany, after informed consent. PBMCs and isolated CD8+ lymphocytes were incubated in T-cell medium (TCM) until use consisting of RPMI-Glutamax (Invitrogen, Karlsruhe, Germany) supplemented with 10% heat inactivated human AB serum (PAN-Biotech, Aidenbach, Germany), 100 U/ml Penicillin/100 μg/ml Streptomycin (Cambrex, Cologne, Germany), 1 mM sodium pyruvate (CC Pro, Oberdorla, Germany), 20 μg/ml Gentamycin (Cambrex). 2.5 ng/ml IL-7 (PromoCell, Heidelberg, Germany) and 10 U/ml IL-2 (Novartis Pharma, Nürnberg, Germany) were also added to the TCM at this step. Generation of pMHC/anti-CD28 coated beads, T-cell stimulations and readout was performed in a highly defined in vitro system using four different pMHC molecules per stimulation condition and 8 different pMHC molecules per readout condition.
The purified co-stimulatory mouse IgG2a anti human CD28 Ab 9.3 (Jung et al., 1987) was chemically biotinylated using Sulfo-N-hydroxysuccinimidobiotin as recommended by the manufacturer (Perbio, Bonn, Germany). Beads used were 5.6 μm diameter streptavidin coated polystyrene particles (Bangs Laboratories, Illinois, USA).
pMHC used for positive and negative control stimulations were A*0201/MLA-001 (peptide […] (SEQ ID NO. 289) from modified Melan-A/MART-1) and A*0201/DDX5-001 ([…] from DDX5, SEQ ID NO. 290), respectively.
800,000 beads/200 μl were coated in 96-well plates in the presence of 4×12.5 ng different biotin-pMHC, washed and 600 ng biotin anti-CD28 were added subsequently in a volume of 200 μl. Stimulations were initiated in 96-well plates by co-incubating 1×10^6 CD8+ T cells with 2×10^5 washed coated beads in 200 μl TCM supplemented with 5 ng/ml IL-12 (PromoCell) for 3 days at 37° C. Half of the medium was then exchanged by fresh TCM supplemented with 80 U/ml IL-2 and incubating was continued for 4 days at 37° C. This stimulation cycle was performed for a total of three times. For the pMHC multimer readout using 8 different pMHC molecules per condition, a two-dimensional combinatorial coding approach was used as previously described (Andersen et al., 2012) with minor modifications encompassing coupling to 5 different fluorochromes. Finally, multimeric analyses were performed by staining the cells with Live/dead near IR dye (Invitrogen, Karlsruhe, Germany), CD8-FITC antibody clone SK1 (BD, Heidelberg, Germany) and fluorescent pMHC multimers. For analysis, a BD LSRII SORP cytometer equipped with appropriate lasers and filters was used. Peptide specific cells were calculated as percentage of total CD8+ cells. Evaluation of multimeric analysis was done using the FlowJo software (Tree Star, Oreg., USA). In vitro priming of specific multimer+CD8+ lymphocytes was detected by comparing to negative control stimulations.

Compound: CNC(=O)c1cc(Oc2ccc(NC(=O)Nc3ccc(Cl)c(C(F)(F)F)c3)cc2)ccn1 [Sorafenib]
- increase of survival [1]: about 3 months

Compound: 89 (SLAETIFIV; listed as Homo sapiens) [compound 89]
- Peptide exchange (MHC class I binding score, peptide exchange yield) (HLA-A*02:01): +++ (≥50 = +++)
- Wells positive [%] (CD8+ T cells): + (<20% = +)

Compound: 246 (ALAGIVTNV; listed as Homo sapiens) [compound 246]
- Peptide exchange (MHC class I binding score, peptide exchange yield) (HLA-A*02:01): +++ (≥50 = +++)
- Wells positive [%] (CD8+ T cells): + (<20% = +)

Compound: 35 (VIIKGLEEI; listed as Homo sapiens) [compound 35]
- Peptide exchange (MHC class I binding score, peptide exchange yield) (HLA-A*02:01): ++ (≥20% = ++)
- Wells positive [%] (CD8+ T cells): + (<20% = +)

Compound: 203 (FLFVDPELV; listed as Homo sapiens) [compound 203]
- Peptide exchange (MHC class I binding score, peptide exchange yield) (HLA-A*02:01): ++ (≥20% = ++)
- Wells positive [%] (CD8+ T cells): +++ (50%-69% = +++)

Compound: 50 (ILLSVLHQL; listed as Homo sapiens) [compound 50]
- Peptide exchange (MHC class I binding score, peptide exchange yield) (HLA-A*02:01): +++ (≥50 = +++)
- Wells positive [%] (CD8+ T cells): + (<20% = +)

Compound: 233 (SLFESLEYL; listed as Homo sapiens) [compound 233]
- Peptide exchange (MHC class I binding score, peptide exchange yield) (HLA-A*02:01): +++ (≥50 = +++)
- Wells positive [%] (CD8+ T cells): + (<20% = +)

Compound: 260 (ALNESLVEC; listed as Homo sapiens) [compound 260]
- Peptide exchange (MHC class I binding score, peptide exchange yield) (HLA-A*02:01): +++ (≥50 = +++)
- Wells positive [%] (CD8+ T cells): + (<20% = +)

Compound: 264 (TLHDQVHLL; listed as Homo sapiens) [compound 264]
- Peptide exchange (MHC class I binding score, peptide exchange yield) (HLA-A*02:01): ++ (≥20% = ++)
- Wells positive [%] (CD8+ T cells): + (<20% = +)

Compound: 34 (TLNTLDINL; listed as Homo sapiens) [compound 34]
- Peptide exchange (MHC class I binding score, peptide exchange yield) (HLA-A*02:01): +++ (≥50 = +++)
- Wells positive [%] (CD8+ T cells): ++++ (>=70% = ++++)

Compound: 242 (KLQEEIPVL; listed as Homo sapiens) [compound 242]
- Peptide exchange (MHC class I binding score, peptide exchange yield) (HLA-A*02:01): +++ (≥50 = +++)
- Wells positive [%] (CD8+ T cells): + (<20% = +)

Compound: 263 (SIIEYLPTL; listed as Homo sapiens) [compound 263]
- Peptide exchange (MHC class I binding score, peptide exchange yield) (HLA-A*02:01): +++ (≥50 = +++)
- Wells positive [%] (CD8+ T cells): + (<20% = +)

Compound: 101 (SLLEVNEASSV; listed as Homo sapiens) [compound 101]
- Peptide exchange (MHC class I binding score, peptide exchange yield) (HLA-A*02:01): +++ (≥50 = +++)
- Wells positive [%] (CD8+ T cells): + (<20% = +)

Compound: 18 (KTASINQNV; listed as Homo sapiens) [compound 18]
- Peptide exchange (MHC class I binding score, peptide exchange yield) (HLA-A*02:01): ++ (≥20% = ++)
- Wells positive [%] (CD8+ T cells): +++ (50%-69% = +++)

Compound: 254 (ALGDKFLLRV; listed as Homo sapiens) [compound 254]
- Peptide exchange (MHC class I binding score, peptide exchange yield) (HLA-A*02:01): ++ (≥20% = ++)
- Wells positive [%] (CD8+ T cells): + (<20% = +)

Compound: 102 (GLYPVTLVGV; listed as Homo sapiens) [compound 102]
- Peptide exchange (MHC class I binding score, peptide exchange yield) (HLA-A*02:01): +++ (≥50 = +++)
- Wells positive [%] (CD8+ T cells): + (<20% = +)

Compound: 9 (SLITGQDLLSV; listed as Homo sapiens) [compound 9]
- Peptide exchange (MHC class I binding score, peptide exchange yield) (HLA-A*02:01): +++ (≥50 = +++)
- Wells positive [%] (CD8+ T cells): + (<20% = +)

Compound: 157 (ILQDGQFLV; listed as Homo sapiens) [compound 157]
- Peptide exchange (MHC class I binding score, peptide exchange yield) (HLA-A*02:01): ++ (≥20% = ++)
- Wells positive [%] (CD8+ T cells): + (<20% = +)

Compound: 267 (YLLDMPLWYL; listed as Homo sapiens) [compound 267]
- Peptide exchange (MHC class I binding score, peptide exchange yield) (HLA-A*02:01): +++ (≥50 = +++)
- Wells positive [%] (CD8+ T cells): + (<20% = +)

Compound: 29 (KMISAIPTL; listed as Homo sapiens) [compound 29]
- Peptide exchange (MHC class I binding score, peptide exchange yield) (HLA-A*02:01): ++ (≥20% = ++)
- Wells positive [%] (CD8+ T cells): + (<20% = +)

Compound: 183 (ALSYILPYL; listed as Homo sapiens) [compound 183]
- Peptide exchange (MHC class I binding score, peptide exchange yield) (HLA-A*02:01): +++ (≥50 = +++)
- Wells positive [%] (CD8+ T cells): +++ (50%-69% = +++)

Compound: 257 (KLIDHQGLYL; listed as Homo sapiens) [compound 257]
- Peptide exchange (MHC class I binding score, peptide exchange yield) (HLA-A*02:01): +++ (≥50 = +++)
- Wells positive [%] (CD8+ T cells): + (<20% = +)

Compound: 255 (FLMKNSDLYGA; listed as Homo sapiens) [compound 255]
- Peptide exchange (MHC class I binding score, peptide exchange yield) (HLA-A*02:01): +++ (≥50 = +++)
- Wells positive [%] (CD8+ T cells): + (<20% = +)
